# Test results taken from US11419869B2, “Dosage forms and regimens for amino acid compounds” (Pliant Therapeutics, Inc., priority 2019, dated 2022).
# How the values were obtained:
# [1] = test system: COL1A1 expression; assay: Precision cut lung slices from human IPF explants, COL1A1 expression (Example B11); type: cell-based; details: for expression of COL1A1 (treatment alone): PCLS from 5-7 IPF lung samples, seven days, nintedanib 75 nM, pirfenidone 50 μm
# Description: Explanted lung tissue was obtained from human IPF subjects and inflated with agarose as described in the preceding examples. Biopsy cores were obtained from the agarose-inflated lung tissue. The biopsy cores were subjected to precision slicing to obtain several hundred μm thick. Individual slices were distributed in a multiwell culture plate and cultured for […] under control (DMSO) and test compound conditions. The viability of the slices over the course of culturing was confirmed by WST-1 assay of mitochondrial activity.
# PCLS from 5-7 idopathic pulmonary fibrosis (IPF) lung tissue samples were cultured for seven days with one of: DMSO; Compound 5 at 200 nM; nintedanib at 75 nM; pirfenidone at 50 μm; a combination of Compound 5 at 200 nM and nintedanib at 75 nM; a combination of Compound 5 at 200 nM and pirfenidone at […]; or an Alk5 inhibitor at 1 μm. […] FIG. 6D is a bar graph showing relative expression of COL1A1 in precision cut lung slices (PCLS) from idopathic pulmonary fibrosis (IPF) lung tissue upon exposure to Comopund 5, clinical standard of care compounds nintedanib (Nin) and pirfenidone (Pirf), and an ALK5 inhibitor, all versus DMSO control.
# PCLS from a single IPF lung tissue sample were cultured for seven days with Compound 5 at concentrations of […], 2 nM, 60 nM, 200 nM, and 1 μM, along with 0.1% DMSO control and an Alk5 inhibitor at 1 μM. […] COL1A1 expression is also graphed for the PCLS in the presence of 0.1% DMSO control, and an Alk5 inhibitor at 1 μM.
# [2] = test system: lung Col1a1 expression; assay: Precision cut lung slices, chronic bleomycin, versus pirfenidone and nintedanib (Example B10); type: cell-based, mice; details: 7 days culture, vs DMSO vehicle, FIG. 6A
# Method: (§1) Mice (C57BL/6) were administered 3 U/kg of bleomycin (Teva Pharmaceuticals; North Wales, Pa.) on Day 0 and 1 U/kg of bleomycin on days 14, 28, 42 and 56 via oropharyngeal aspiration while under anesthesia. At day 70, 14 days following the final bleomycin insult, precision cut lung slices were obtained. Following euthanization, 2% low gelling temp agarose was injected into the mouse lungs via the trachea. […] The lobes were then subjected to precision slicing to obtain samples for culture using a microtome (Compresstome VF-300-0Z, Precisionary; Greenville, N.C.). Individual slices were distributed in a multiwell culture plate and cultured for 7 days under control (DMSO) and test compound conditions. The viability of the slices over the course of culturing was confirmed by WST-1 assay of mitochondrial activity.
# During the culture period, slices in the control group were treated with DMSO and slices in the test group were treated with a DMSO solution of one of compound 5; nintedanib; pirfenidone; a combination of nintedanib and compound 5; a combination of pirfenidone and compound 5; or the small molecule ALK5 inhibitor. Compound 5 was […] effective to equal or exceed its respective IC50 values at αvβ6 and αvβ1. The small molecule ALK5 inhibitor was analyzed at […] its reported IC50 value. Nintendanib and pirfenidone were analyzed at concentrations 10× their reported therapeutic concentrations.
# [3] = test system: lung Col1a1 expression; assay: Precision cut lung slices, mice under chronic bleomycin exposure (Example B9); type: cell-based; details: 7 days culture, normalized to DMSO, FIG. 5B
# Method: as §1, with “after” for “following”
# During the culture period, slices in the control group were treated with DMSO and slices in the test group were treated with a DMSO solution of one of: the selective antibody αvβ6 inhibitor 3G9; the αvβ1-selective small molecule inhibitor; a combination of the selective antibody αvβ6 inhibitor 3G9 and the αvβ1-selective small molecule inhibitor; compound 5; and the small molecule ALK5 inhibitor. The selective αvβ1 and αvβ6 integrin inhibitors were analyzed at ≥their respective IC90 concentrations for inhibition of TGF-beta activation. […]
# [4] = test system: Type I Collagen gene Col1a1 expression; assay: Precision cut lung slices, mice under acute bleomycin exposure (Example B8); type: cell-based; details: 3 days culture, normalized to DMSO, FIG. 5A
# Method: Mice (C57BL/6) were administered 3 U/kg of bleomycin (Teva Pharmaceuticals; North Wales, Pa.) on day 0 via oropharyngeal aspiration while under anesthesia. On day 14, precision cut lung slices were obtained. Following euthanization, 2% low gelling temp agarose was injected into the mouse lungs via the trachea. […] The lobes were then subjected to precision slicing to obtain samples for culture using a microtome (Compresstome VF-300-0Z, Precisionary; Greenville, N.C.). Individual slices were distributed in a multiwell culture plate and cultured for 3 days under control (DMSO) and test compound conditions.
# [5] = test system: Col1a1 expression; assay: lung slice Col1a1 expression versus DMSO control slices; details: FIG. 6A; compared to the DMSO vehicle control slices
# [6] = treatment of IPF; cited from earlier work
# [7] = biological target: recombinant human integrin αvβ6 (Homo sapiens (Human), UniProt P06756+P18564); assay: Solid Phase Integrin αvβ6 Binding Assay (Examples B1, B2); details: TGFβ1 LAP ligand, values given in four ranges, read-out: αvβ6 Inhibition IC50 (nM)-range
# Chain of recombinant human integrin αvβ6 (P06756 31-992): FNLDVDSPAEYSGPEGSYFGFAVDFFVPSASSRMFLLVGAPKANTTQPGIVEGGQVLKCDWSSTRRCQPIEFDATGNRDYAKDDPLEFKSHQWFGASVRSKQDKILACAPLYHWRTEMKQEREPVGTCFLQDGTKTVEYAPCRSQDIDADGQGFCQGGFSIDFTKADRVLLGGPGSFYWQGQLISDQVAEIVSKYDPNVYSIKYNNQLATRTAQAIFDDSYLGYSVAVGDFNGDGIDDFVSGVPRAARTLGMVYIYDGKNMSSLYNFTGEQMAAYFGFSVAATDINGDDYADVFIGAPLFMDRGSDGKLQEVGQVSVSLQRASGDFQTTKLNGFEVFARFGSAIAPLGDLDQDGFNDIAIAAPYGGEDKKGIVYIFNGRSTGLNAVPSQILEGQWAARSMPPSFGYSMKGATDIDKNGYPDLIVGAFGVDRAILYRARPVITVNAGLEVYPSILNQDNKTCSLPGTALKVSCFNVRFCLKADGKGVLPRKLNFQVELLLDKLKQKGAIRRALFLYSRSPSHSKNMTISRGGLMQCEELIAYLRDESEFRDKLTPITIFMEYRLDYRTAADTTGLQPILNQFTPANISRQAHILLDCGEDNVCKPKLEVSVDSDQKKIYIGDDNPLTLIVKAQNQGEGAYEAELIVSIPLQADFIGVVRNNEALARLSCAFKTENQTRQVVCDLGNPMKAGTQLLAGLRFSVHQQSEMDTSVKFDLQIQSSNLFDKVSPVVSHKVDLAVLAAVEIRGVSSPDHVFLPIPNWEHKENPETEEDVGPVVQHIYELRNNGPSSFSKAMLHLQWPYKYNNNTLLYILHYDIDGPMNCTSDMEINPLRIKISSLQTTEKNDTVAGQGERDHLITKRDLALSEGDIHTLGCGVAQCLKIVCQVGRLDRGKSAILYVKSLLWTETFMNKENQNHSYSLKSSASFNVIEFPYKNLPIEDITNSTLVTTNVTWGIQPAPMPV
# Chain of recombinant human integrin αvβ6 (P18564 22-707): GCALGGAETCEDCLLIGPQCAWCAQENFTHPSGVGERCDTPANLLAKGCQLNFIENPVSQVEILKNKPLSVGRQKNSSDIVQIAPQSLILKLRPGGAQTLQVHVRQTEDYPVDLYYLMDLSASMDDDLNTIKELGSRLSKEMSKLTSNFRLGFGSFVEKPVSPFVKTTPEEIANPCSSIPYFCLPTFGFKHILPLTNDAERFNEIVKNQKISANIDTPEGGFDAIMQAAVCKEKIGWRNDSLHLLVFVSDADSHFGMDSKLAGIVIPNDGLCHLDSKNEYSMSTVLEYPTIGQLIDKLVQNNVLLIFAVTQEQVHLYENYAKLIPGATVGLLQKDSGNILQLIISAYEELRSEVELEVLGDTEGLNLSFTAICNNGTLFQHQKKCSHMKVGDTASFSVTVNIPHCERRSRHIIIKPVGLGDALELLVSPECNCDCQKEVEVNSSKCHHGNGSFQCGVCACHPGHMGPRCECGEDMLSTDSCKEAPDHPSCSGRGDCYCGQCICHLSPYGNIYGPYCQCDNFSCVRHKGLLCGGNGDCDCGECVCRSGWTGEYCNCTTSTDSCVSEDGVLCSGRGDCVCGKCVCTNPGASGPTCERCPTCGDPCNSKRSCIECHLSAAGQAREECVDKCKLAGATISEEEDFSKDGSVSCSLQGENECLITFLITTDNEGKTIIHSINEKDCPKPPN
# Outline: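 Plates coated with recombinant human αvβ6 (2 μg/mL) compete compound against recombinant TGFβ1 LAP (0.67 μg/mL) in TBS binding buffer with 0.5 mM MnCl2, 2 h at 25 °C. Bound LAP detected with biotin-anti-hLAP and peroxidase-streptavidin; IC50 by four-parameter logistic regression.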
smiles,measurement,setting,value
"Cc1cccc(-c2n[nH]cc2-c2ccc(F)c(-c3cnn(CCO)c3)c2)n1 [small molecule ALK5 inhibitor, 4-[2-Fluoro-5-[3-(6-methyl-2-pyridinyl)-1H-pyrazol-4-yl]phenyl]-1H-pyrazole-1-ethanol, reference compound]",lung Col1a1 expression,"[1]; human IPF slices, 3 days, 3G9 ≥400 ng/mL, compound 5 179 nM, ALK5 inhibitor 1 μM, FIG. 6C",decrease in lung Col1a1 expression
same,lung slice Col1a1 expression,[2],"substantial, statistically significant (p<0.0001 vs vehicle) decrease"
same,lung Col1a1 expression,[3],greatest decrease
same,Type I Collagen gene Col1a1 expression,[4],greatest decrease
Cc1ccc(=O)n(-c2ccccc2)c1 [pirfenidone],expression of COL1A1 (treatment alone),[1],did not significantly reduce
same,lung slice Col1a1 expression,[2],slight increase
same,lung Col1a1 expression,[5],slight increase
same,side effects,[6],numerous side effects
same,therapeutic efficacy,[6],less therapeutic efficacy than desired
COC(=O)c1ccc2c(c1)NC(=O)/C2=C(\Nc1ccc(N(C)C(=O)CN2CCN(C)CC2)cc1)c1ccccc1 [nintedanib],expression of COL1A1 (treatment alone),[1],did not significantly reduce
same,lung slice Col1a1 expression,[2],slight increase
same,lung Col1a1 expression,[5],slight increase
same,side effects,[6],numerous side effects
same,therapeutic efficacy,[6],less therapeutic efficacy than desired
"CC(C)(C)c1cc(Br)cc([C@H](CC(=O)O)NC(=O)CNC(=O)c2cc(O)cc(NC3=NCC(O)CN3)c2)c1 (stereo partly drawn) [second pan-av small molecule inhibitor, (3S)—N-[3-hydroxy-5-[(1,4,5,6-tetrahydro-5-hydroxy-2-pyrimidinyl)amino]benzoyl]glycyl-3-[3-bromo-5-(1,1-dimethylethyl)phenyl]-β-alanine]",Type I Collagen gene Col1a1 expression,[4],reduced Type I Collagen gene Col1a1 expression
"Cc1cc(C)n(CCN(CCCCc2ccc3c(n2)NCCC3)CC[C@H](Nc2ncnc3ccccc23)C(=O)O)n1 [Compound 45, (S)-4-((2-(3,5-dimethyl-1H-pyrazol-1-yl)ethyl) (4-(5,6,7,8-tetrahydro-1,8-naphthyridin-2-yl)butyl)amino)-2-(quinazolin-4-ylamino) butanoic acid]",IC50,[7],< 50 nM
"CO[C@H](C)CN(CCCCc1ccc2c(n1)NCCC2)CC[C@H](Nc1ncncc1-c1ccccc1)C(=O)O [Compound 81, (S)-4-(((R)-2-methoxypropyl) (4-(5,6,7,8-tetrahydro-1,8-naphthyridin-2-yl)butyl)amino)-2-((5-phenylpyrimidin-4-yl)amino) butanoic acid]",IC50,[7],< 50 nM
"Cn1ncc2c(N[C@@H](CCN(CCCCc3ccc4c(n3)NCCC4)CCOc3ccc(F)cc3)C(=O)O)ncnc21 [Compound 123, (S)-4-((2-(4-fluorophenoxy)ethyl) (4-(5,6,7,8-tetrahydro-1,8-naphthyridin-2-yl)butyl)amino)-2-((1-methyl-1H-pyrazolo[3,4-d]pyrimidin-4-yl)amino) butanoic acid]",IC50,[7],< 50 nM
"O=C(O)[C@H](CCN(CCCCc1ccc2c(n1)NCCC2)CCOc1ccccc1)Nc1ncc(C(F)(F)F)cn1 [Compound 89, (S)-4-((2-phenoxyethyl) (4-(5,6,7,8-tetrahydro-1,8-naphthyridin-2-yl)butyl)amino)-2-((5-(trifluoromethyl)pyrimidin-2-yl)amino) butanoic acid]",IC50,[7],< 50 nM
"COCCN(CCCCc1ccc2c(n1)NCCC2)CC[C@H](Nc1cc(C(F)(F)F)nc(C)n1)C(=O)O [Compound 22, (S)-4-((2-methoxyethyl) (4-(5,6,7,8-tetrahydro-1,8-naphthyridin-2-yl)butyl)amino)-2-((2-methyl-6-(trifluoromethyl)pyrimidin-4-yl)amino) butanoic acid]",IC50,[7],< 50 nM
"COCCN(CCCCc1ccc2c(n1)NCCC2)CC[C@H](Nc1ncnc2cccnc12)C(=O)O [Compound 16, (S)-4-((2-methoxyethyl) (4-(5,6,7,8-tetrahydro-1,8-naphthyridin-2-yl)butyl)amino)-2-(pyrido[3,2-d]pyrimidin-4-ylamino) butanoic acid]",IC50,[7],< 50 nM
